The target of experiment [1] is Recombinant Human NF-kappaB-inducing Kinase (NIK/MAP3K14) (Homo sapiens, UniProt Q99558). Description: Inhibition of auto-phosphorylation of recombinant human NIK/MAP3K14 (AlphaScreen). Type of experiment: biochemical. The conditions noted are these: GST-tagged NIK/MAP3K14 0.2 nM, 25 microM ATP, 1 h at 25° C.; averaged over all measurements on all batches; read-out: Alpha-Screen IC50. As for the experimental part:
Inhibition of Auto-phosphorylation of Recombinant Human NF-kappaB-inducing Kinase (NIK/MAP3K14) Activity (AlphaScreen®)
NIK/MAP3K14 auto-phosphorylation activity was measured using the AlphaScreen® (αscreen) format (Perkin Elmer). All compounds tested were dissolved in dimethyl sulfoxide (DMSO) and further dilutions were made in assay buffer. Final DMSO concentration was 1% (v/v) in assays. Assay buffer was 50 mM Tris pH 7.5 containing 1 mM EGTA (ethylene glycol tetraacetic acid), 1 mM DTT (dithiothreitol), 0.1 mM Na3VO4, 5 mM MgCl2, 0.01% Tween® 20. Assays were carried out in 384 well Alphaplates (Perkin Elmer). Incubations consisted of compound, 25 microM Adenosine-5′-triphosphate (ATP), and 0.2 nM NIK/MAP3K14. Incubations were initiated by addition of GST-tagged NIK/MAP3K14 enzyme, carried out for 1 h at 25° C. and terminated by addition of stop buffer containing anti-phospho-IKK Ser176/180 antibody. Protein A Acceptor and Glutathione-Donor beads were added before reading using an EnVision® Multilabel Plate Reader (Perkin Elmer). Signal obtained in the wells containing blank samples was subtracted from all other wells and IC50's were determined by fitting a sigmoidal curve to % inhibition of control versus Log10 compound concentration.
For orientation: Bead proximity is the source of the signal in Alpha formats.

Another experiment has as its system JJN-3 cells. Description: Antiproliferative activity on JJN-3 cells (CellTiter-Glo). It counts as cell-based. As to conditions: Homo sapiens, 72 hr of treatment, averaged values. On the procedure:
(§1) Determination of Antiproliferative Activity on LP-1, L-363 and JJN-3 Cells
(§2) All compounds tested were dissolved in DMSO and further dilutions were made in culture medium. Final DMSO concentration was 0.3% (v/v) in cell proliferation assays.
(§3) Viability was assessed using CellTiter-Glo cell viability assay kit (Promega). The human LP-1, L-363 and JJN-3 cells (DSMZ) were cultured in RPMI 1640 medium supplemented with 2 mM L-glutamine, and 10% fetal calf serum (PAA). Cells were routinely kept as suspension cells at 37° C. in a humidified 5% C02 atmosphere. Cells were passaged at a seeding density of 0.2×10^6/ml twice a week. Cells were seeded in black tissue culture treated 96-well plates (Perkin Elmer). Densities used for plating ranged from 2,000 to 6,000 cells per well in a total volume of 75 μl medium. After twenty four hours, drugs and/or solvents were added (25 μl) to a final volume of 100 μl. Following 72 hr of treatment plates were removed from the incubator and allowed to equilibrate to room temperature for approx 10 min. 100 μl CellTiter-Glo reagent was added to each well that was then covered (Perkin Elmer Topseal) and shaken on plate shaker for 10 min. Luminescence was measured on a HTS Topcount (Perkin Elmer). Within an experiment, the results for each treatment were the mean of 2 replicate wells.
(§4) For initial screening purposes, compounds were tested using a 9 point dilution curve (serial 1:3 dilutions). For each experiment, controls (containing no drug) and a blank incubation (containing cells read at the time of compound addition) were run in parallel. The blank value was subtracted from all control and sample values. For each sample, the mean value for cell growth (in relative light units) was expressed as a percentage of the mean value for cell growth of the control.
On the technique in general: Cellular ATP, detected with luciferase, serves as a proxy for viable cell number.

For another experiment, the system named is L-363 cells. The experiment is described as follows: Antiproliferative activity on L-363 cells (CellTiter-Glo). The conditions noted are these: Homo sapiens, 72 hr of treatment, averaged values. Type of experiment: cell-based. As for the experimental part:
as §1, §2, §3, §4

A further experiment concerns LP-1 cells. The experiment is described as follows: Antiproliferative activity on LP-1 cells (CellTiter-Glo). The conditions noted are these: Homo sapiens, 72 hr of treatment, averaged values. It counts as cell-based. On the procedure: as §1, §2, §3, §4
The subject of experiment [2] is P-IKKα levels in L363 cells. Description: Effect of compounds on P-IKKα levels in L363 cells. Type of experiment: cell-based. The conditions noted are these: Homo sapiens, L-363; L363 cells with BAFF, 2 hr treatment, P-IKKα by sandwich immuno-assay (Mesoscale); averaged values; read-out: IKKα Cellular IC50. On the procedure:
Effect of Compounds on P-IKKα Levels in L363 Cells
All compounds tested were dissolved in DMSO and further dilutions were made in culture medium. Final DMSO concentration was 1% (v/v) in cell assays. The human L363 cells (ATCC) were cultured in RPMI 1640 medium supplemented with GlutaMax and 10% fetal calf serum (PAA). Cells were routinely maintained at densities of 0.2×10^6 cells per ml-1×10^6 cells per ml at 37° C. in a humidified 5% C02 atmosphere. Cells were passaged twice a week splitting back to obtain the low density. Cells were seeded in 96 well plates (Nunc 167008) at 2×10^6 per ml media in a volume of 75 μl per well plus 25 μl 1 μg/ml recombinant human B-cell activating factor (BAFF/BLyS/TNFSF13B). Seeded cells were incubated at 37° C. in a humidified 5% CO2 atmosphere for 24 hr. Drugs and/or solvents were added (20 μl) to a final volume of 120 μl. Following 2 hr treatment plates were removed from the incubator and cell lysis was achieved by the addition of 30 μl 5× lysis buffer followed by shaking on a plate shaker at 4° C. for 10 min. At the end of this incubation lysed cells were centrifuged at 800×g for 20 min at 4° C. and the lysate was assessed for P-IKKα levels by sandwich immuno-assay carried out in anti-rabbit antibody coated Mesoscale plates. Within an experiment, the results for each treatment were the mean of 2 replicate wells.
For initial screening purposes, compounds were tested using an 8 point dilution curve (serial 1:3 dilutions). For each experiment, controls (containing MG132 and BAFF but no test drug) and a blank incubation (containing MG132 and BAFF and 10 μM ADS 125117, a test concentration known to give full inhibition) were run in parallel. The blank incubation value was subtracted from all control and sample values. To determine the IC50 a sigmoidal curve was fitted to the plot of % inhibition of control P-IKKα levels versus Log10 compound concentration.

This note sets out measurements from US10323045B2, “Thienopyrimidine derivatives as NIK inhibitors” (Janssen Pharmaceutica NV, priority 2014, dated 2019).

Chain of Recombinant Human NF-kappaB-inducing Kinase (NIK/MAP3K14) (Q99558 whole entry): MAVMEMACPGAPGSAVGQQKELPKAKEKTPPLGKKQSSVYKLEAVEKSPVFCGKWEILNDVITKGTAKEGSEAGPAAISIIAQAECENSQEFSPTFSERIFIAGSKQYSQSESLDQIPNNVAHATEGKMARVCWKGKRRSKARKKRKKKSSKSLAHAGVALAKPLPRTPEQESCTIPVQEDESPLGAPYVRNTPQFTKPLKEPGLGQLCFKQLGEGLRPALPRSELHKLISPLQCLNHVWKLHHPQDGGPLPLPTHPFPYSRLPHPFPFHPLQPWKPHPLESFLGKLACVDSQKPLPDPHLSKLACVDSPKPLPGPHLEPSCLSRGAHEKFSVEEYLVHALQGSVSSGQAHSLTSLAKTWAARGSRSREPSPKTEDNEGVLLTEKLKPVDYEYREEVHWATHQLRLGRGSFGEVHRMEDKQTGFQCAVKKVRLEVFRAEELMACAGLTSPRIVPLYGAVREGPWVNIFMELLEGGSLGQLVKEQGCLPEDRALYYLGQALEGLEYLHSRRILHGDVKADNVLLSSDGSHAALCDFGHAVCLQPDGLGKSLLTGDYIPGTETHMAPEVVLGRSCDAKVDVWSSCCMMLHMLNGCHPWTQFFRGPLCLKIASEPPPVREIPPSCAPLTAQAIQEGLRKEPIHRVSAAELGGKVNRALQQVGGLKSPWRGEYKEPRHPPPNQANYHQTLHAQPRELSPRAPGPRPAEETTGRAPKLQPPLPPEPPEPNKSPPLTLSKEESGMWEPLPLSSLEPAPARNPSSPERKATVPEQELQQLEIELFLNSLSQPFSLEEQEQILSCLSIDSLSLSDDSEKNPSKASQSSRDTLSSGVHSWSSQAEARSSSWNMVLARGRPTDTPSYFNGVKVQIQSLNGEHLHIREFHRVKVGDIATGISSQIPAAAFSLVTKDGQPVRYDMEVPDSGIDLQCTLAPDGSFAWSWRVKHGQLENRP

Regarding `CC(O)(C#Cc1cc2c(-c3nc(N)nc4ccsc34)cn(C3CN(C4CC4)C3)c2cn1)C1CC1` (single isomer, unassigned) [Compound 11], the IC50 (as a rule, the concentration needed to halve the response being measured) in experiment [1] turned out to be 26 nM. In addition, the EC50 (as a rule, the concentration needed to bring the measured effect to its halfway point) in the experiment with JJN-3 cells came to 652 nM; in the experiment on L-363 cells, 461 nM; in the experiment on LP-1 cells it was 918 nM.
With `CC(C)(O)C#Cc1cc2c(ccn2-c2nc(N)nc3ccsc23)cn1` [Compound 1], the IC50 in experiment [1] came to 15 nM; in experiment [2] it was 104 nM. The EC50 amounted to 764 nM in the experiment with JJN-3 cells, 979 nM in the experiment on L-363 cells and 2220 nM with LP-1 cells.
Consider `CC(C)(O)C#Cc1cc2c(cn1)c(CCC(C)(C)O)cn2-c1nc(N)nc2ccsc12` [Compound 2], for which the results for the IC50 in experiment [1] and in experiment [2] were 9 nM and 339 nM, respectively. Also, the EC50 with JJN-3 cells was 1470 nM; in the experiment on L-363 cells it was 2800 nM; with LP-1 cells, 10300 nM.
On to `CN1CCC(c2cn(-c3nc(N)nc4ccsc34)c3cc(C#CC(C)(C)O)ncc23)CC1` [Compound 3], for which, in experiment [1], the IC50 came to 140 nM. Further, the EC50 with JJN-3 cells was determined as 540 nM; with L-363 cells, 258 nM; in the experiment on LP-1 cells it was 3980 nM.
The matching figures for `CC(C)c1cn(-c2nc(N)nc3ccsc23)c2cc(C#CC(C)(C)O)ncc12` [Compound 4]: 26 nM, 1740 nM, 1580 nM and 3130 nM.
Regarding `COCCCn1cc(-c2nc(N)nc3ccsc23)c2cc(C#CC(C)(C)O)ncc21` [Compound 5], the IC50 in experiment [1] turned out to be 19 nM; in experiment [2], 64 nM. Besides, the EC50 in the experiment on JJN-3 cells worked out at 299 nM; in the experiment with L-363 cells it was 395 nM; with LP-1 cells it was 1680 nM.
With `COCCCc1cn(-c2nc(N)nc3ccsc23)c2cc(C#CC(C)(C)O)ncc12` [Compound 6], the IC50 in experiment [1] worked out at 15 nM. Also, the EC50 in the experiment on JJN-3 cells was 580 nM; in the experiment on L-363 cells it was 1040 nM; with LP-1 cells, 3430 nM.
For `CC(C)(O)C#Cc1cc2c(-c3nc(N)nc4ccsc34)cn(C3COC3)c2cn1` [Compound 7] the same measures were 32 nM, 1060 nM, 696 nM and above 30000 nM.
For `CC(O)(C#Cc1cc2c(-c3nc(N)nc4ccsc34)cn(C3CCN(C4CC4)CC3)c2cn1)C1CC1` (centres unmarked) [Compound 8] the same measures were 112 nM, 16 nM, 4 nM and 38 nM.
For `[2H]C([2H])([2H])C(O)(C#Cc1cc2c(-c3nc(N)nc4ccsc34)cn(C3CCN(C4CC4)CC3)c2cn1)C([2H])([2H])[2H]` [Compound 9] the same measures were 20 nM, 24 nM, 7 nM and 85 nM.
With `[2H]C([2H])([2H])C(O)(C#Cc1cc2c(-c3nc(N)nc4ccsc34)cn(C3CN(C4CC4)C3)c2cn1)C([2H])([2H])[2H]` [Compound 10], in experiment [1], the IC50 amounted to 52 nM. The EC50 with JJN-3 cells is 494 nM; with L-363 cells, 610 nM; in the experiment with LP-1 cells, 1480 nM.
The matching figures for `[2H]C([2H])([2H])C(O)(C#Cc1cc2c(-c3nc(N)nc4ccsc34)cn(C3CCCN(CC)C3)c2cn1)C([2H])([2H])[2H]` (centres unmarked) [Compound 12]: 66 nM, 289 nM, 243 nM and 783 nM.
With `[2H]C([2H])([2H])C(O)(C#Cc1cc2c(-c3nc(N)nc4ccsc34)cn(CC3CCCN3CC)c2cn1)C([2H])([2H])[2H]` (centres unmarked) [Compound 13], in experiment [1], the IC50 was 58 nM. Also, the EC50 in the experiment on JJN-3 cells was found to be 60 nM; with L-363 cells it was 36 nM; in the experiment with LP-1 cells, 75 nM.
Turning to `[2H]C([2H])([2H])C(O)(C#Cc1cc2c(-c3nc(N)nc4ccsc34)cn(C3CCN(CC)C3)c2cn1)C([2H])([2H])[2H]` (centres unmarked) [Compound 14], the IC50 in experiment [1] is 38 nM. The EC50 in the experiment with JJN-3 cells was 145 nM; in the experiment on L-363 cells it was 122 nM; in the experiment on LP-1 cells, 655 nM.
